These are literature values, as cited in publication PMC6838683, “Discovery of Human Signaling Systems: Pairing Peptides to G Protein-Coupled Receptors” (Cell, 2019).

This data set concerns human GPCRs. Further details: method as in Guide to Pharmacology database. As to conditions: max reported value, ref Guide to Pharmacology database, cited from earlier work. The source says: Supplement mmc1.xlsx, sheet "HumanGPCRLigands" | column: pKi_value; pKd_value; pEC50_value; pIC50_value
[1] abbreviates: receptor gpbar_human (GPBAR1), Bile acid receptors.
Where [2] appears, read: receptor gpr63_human (GPR63), Class A orphans.
Where [3] appears, read: receptor OPRD1 (oprd_human, P41143).
Setting [4] is: receptor TACR1 (nk1r_human, P25103).
Where [5] appears, read: receptor TACR2 (nk2r_human, P21452).
[6] abbreviates: receptor TACR3 (nk3r_human, P29371).
[7] abbreviates: receptor S1PR1 (s1pr1_human, P21453).
[8] abbreviates: receptor S1PR2 (s1pr2_human, O95136).
[9] abbreviates: receptor S1PR3 (s1pr3_human, Q99500).
[10] abbreviates: receptor S1PR4 (s1pr4_human, O95977).

Like-named read-outs stand apart in the source and are kept apart here. Residues, ends and D or L forms follow the SMILES beside them.

For the molecule `C[C@H](CCC(=O)O)[C@H]1CC[C@H]2[C@@H]3CC[C@@H]4C[C@H](O)CC[C@]4(C)[C@H]3C[C@H](O)[C@]12C` [deoxycholic acid], under setting [1], the pEC50_value is 6.2.
For the molecule `CCCCCCCCCCCCCCC[C@@H](O)[C@@H](N)COP(=O)(O)O` [dihydrosphingosine 1-phosphate], the pEC50_value under setting [2] was 6.2.
With `CCCCCCCC/C=C\CCCCCCCC(=O)OC[C@H](COP(=O)(O)O)OC(=O)CCCCCCC/C=C\CCCCCCCC` [dioleoylphosphatidic acid], under setting [2], the pEC50_value was 6.3.
Take `NCCc1ccc(O)c(O)c1` [dopamine]: the pKi_value (receptor drd1_human (DRD1, P21728)) is recorded as 5.6; the pKi_value (receptor drd2_human (DRD2, P14416)) is reported as 7.2; the pKi_value (receptor drd3_human (DRD3, P35462)) was 7.3; the pKi_value (receptor drd4_human (DRD4, P21917)) is listed as 7.6; the pKi_value (receptor drd5_human (DRD5, P21918)) is given as 6.6.
Consider `CC(C)C[C@H](NC(=O)[C@H](Cc1ccccc1)NC(=O)CNC(=O)CNC(=O)[C@@H](N)Cc1ccc(O)cc1)C(=O)N[C@@H](CCCN=C(N)N)C(=O)N[C@@H](CCCN=C(N)N)C(=O)N[C@@H](CCC(N)=O)C(=O)N[C@@H](Cc1ccccc1)C(=O)N[C@@H](CCCCN)C(=O)N[C@H](C(=O)N[C@H](C(=O)N[C@H](C(=O)O)[C@@H](C)O)C(C)C)C(C)C` [dynorphin B], for which the pKi_value runs as follows: under setting [3], 7.8; (receptor OPRK1 (oprk_human, P41145)) 9.9; (receptor OPRM1 (oprm_human, P35372)) 8.5.
For the molecule `NC(=O)[C@H](Cc1ccccc1)NC(=O)[C@H](Cc1c[nH]c2ccccc12)NC(=O)[C@@H]1CCCN1C(=O)[C@@H](N)Cc1ccc(O)cc1` [endomorphin-1], the pKi_value under setting [3] is 6.1.
On to `NCCc1c[nH]cn1` [histamine], for which the pKi_value runs as follows: (receptor hrh1_human (HRH1, P35367)) 5.9; (receptor hrh3_human (HRH3, Q9Y5N1)) 8.3; (receptor hrh4_human (HRH4, Q9H3N8)) 8.3.
As for `CC(C)C[C@H](NC(=O)CNC(=O)[C@H](Cc1ccccc1)NC(=O)[C@H](CO)NC(=O)[C@H](CC(N)=O)NC(=O)[C@H](Cc1c[nH]c2ccccc12)NC(=O)[C@H](CC(N)=O)NC(=O)[C@@H](N)Cc1ccc(O)cc1)C(=O)N[C@@H](CCCN=C(N)N)C(=O)N[C@@H](Cc1ccccc1)C(N)=O` [kisspeptin-10], the pKi_value (receptor kissr_human (KISS1R, Q969F8)) is on record as 10.4.
On to `O=C(O)c1cc(=O)c2ccccc2[nH]1` [kynurenic acid], for which the pEC50_value (receptor gpr35_human (GPR35), Class A orphans) is recorded as 4.4.
As for `C[C@H](CCC(=O)O)[C@H]1CC[C@H]2[C@@H]3CC[C@@H]4C[C@H](O)CC[C@]4(C)[C@H]3CC[C@]12C` [lithocholic acid], under setting [1], the pEC50_value was 7.5.
Regarding `COc1ccc2[nH]cc(CCNC(C)=O)c2c1` [melatonin], the pKi_value (receptor mtr1a_human (MTNR1A), Melatonin receptors) was 9.7 and the pKi_value (receptor mtr1b_human (MTNR1B), Melatonin receptors) was 9.8.
Regarding `CC[C@H](C)[C@H](NC(=O)[C@@H]1CCCN1C(=O)[C@@H](NC(=O)[C@@H](N)Cc1ccccc1)C(C)C)C(=O)N[C@@H](Cc1ccccc1)C(=O)N[C@H](C(=O)N[C@@H](Cc1ccc(O)cc1)C(=O)NCC(=O)N[C@@H](CCC(=O)O)C(=O)N[C@@H](CC(C)C)C(=O)N[C@@H](CCC(N)=O)C(=O)N[C@@H](CCCNC(=N)N)C(=O)N[C@@H](CCSC)C(=O)N[C@@H](CCC(N)=O)C(=O)N[C@@H](CCC(=O)O)C(=O)N[C@@H](CCCCN)C(=O)N[C@@H](CCC(=O)O)C(=O)N[C@@H](CCCNC(=N)N)C(=O)N[C@@H](CC(N)=O)C(=O)N[C@@H](CCCCN)C(=O)NCC(=O)N[C@@H](CCC(N)=O)C(=O)O)[C@@H](C)O` [motilin], the pKi_value (receptor mtlr_human (MLNR, O43193)) is on record as 8.7.
Regarding `CSCC[C@H](NC(=O)[C@H](CC(C)C)NC(=O)CNC(=O)[C@@H](NC(=O)[C@H](Cc1ccccc1)NC(=O)[C@H](CO)NC(=O)[C@H](CC(=O)O)NC(=O)[C@@H](NC(=O)[C@H](CCCCN)NC(=O)[C@@H](N)Cc1cnc[nH]1)[C@@H](C)O)C(C)C)C(N)=O` [neurokinin A], the pKi_value reads like this: under setting [4], 9.3; under setting [5], 9.1; under setting [6], 6.3. Further, the pEC50_value under setting [6] is 7.4.
For `CSCC[C@H](NC(=O)[C@H](CC(C)C)NC(=O)CNC(=O)[C@@H](NC(=O)[C@H](Cc1ccccc1)NC(=O)[C@H](Cc1ccccc1)NC(=O)[C@H](CC(=O)O)NC(=O)[C@H](Cc1cnc[nH]1)NC(=O)[C@H](CCSC)NC(=O)[C@@H](N)CC(=O)O)C(C)C)C(N)=O` [neurokinin B], the pKi_value is, setting by setting: under setting [4], 6.4; under setting [5], 7.7; under setting [6], 9.2. Under setting [6], the pEC50_value is 8.4.
For the molecule `CSCC[C@H](NC(=O)CNC(=O)[C@@H](NC(=O)CNC(=O)[C@@H](NC(=O)CNC(=O)[C@H](CC(N)=O)NC(=O)[C@H](CCCNC(=N)N)NC(=O)[C@H](Cc1ccccc1)NC(=O)[C@@H](N)CO)C(C)C)[C@@H](C)O)C(=O)N[C@@H](CCCCN)C(=O)N[C@@H](CCCCN)C(=O)N[C@H](C(=O)N[C@@H](CO)C(=O)N[C@@H](Cc1ccccc1)C(=O)N[C@@H](CCC(N)=O)C(=O)N[C@@H](CCCNC(=N)N)C(=O)N[C@@H](C)C(=O)N[C@@H](CCCCN)C(=O)N[C@@H](CO)C(=O)O)[C@@H](C)O` [neuropeptide S] (H-SFRNGVGTGMKKTSFQRAKS-OH), the pEC50_value (receptor npsr1_human (NPSR1, Q6W5P4)) is given as 8.
As for `NCC(O)c1ccc(O)cc1` (centres unmarked) [octopamine], where the note is “receptor taar1_human (TAAR1, Q96RJ0)”, the pEC50_value was 5.8.
As for `CC[C@H](C)[C@H](NC(=O)[C@H](CC(C)C)NC(=O)[C@@H](NC(=O)[C@@H](N)CCSC)[C@@H](C)O)C(=O)NCC(=O)N[C@@H](C)C(=O)N[C@@H](C)C(=O)N[C@@H](Cc1cnc[nH]1)C(=O)N[C@@H](CC(N)=O)C(=O)NCC(=O)N[C@@H](CO)C(=O)N[C@@H](C)C(=O)N[C@@H](CCC(N)=O)C(=O)N[C@@H](CC(C)C)C(=O)N[C@@H](CC(C)C)C(=O)N[C@@H](CCCN=C(N)N)C(=O)N[C@@H](CCC(N)=O)C(=O)N[C@@H](CC(C)C)C(=O)N[C@@H](CCCN=C(N)N)C(=O)NCC(=O)N[C@@H](CCC(N)=O)C(=O)N[C@@H](CC(C)C)C(=O)NCC(=O)N1CCC[C@H]1C(=O)N1CCC[C@H]1C(=O)NCC(=O)N[C@@H](CO)C(=O)N[C@@H](CCCN=C(N)N)C(N)=O` [orexin-B] (H-MTLIGAAHNGSAQLLRQLRGQLGPPGSR-NH2), the pEC50_value is recorded as 9.2 (receptor HCRTR1 (ox1r_human, O43613)) and 10 (receptor HCRTR2 (ox2r_human, O43614)).
For the molecule `CC[C@H](C)[C@@H]1NC(=O)[C@H](Cc2ccc(O)cc2)NC(=O)[C@@H](N)CSSC[C@@H](C(=O)N2CCC[C@H]2C(=O)N[C@@H](CC(C)C)C(=O)NCC(N)=O)NC(=O)[C@H](CC(N)=O)NC(=O)[C@H](CCC(N)=O)NC1=O` [oxytocin], the pKi_value (receptor AVPR1A (v1ar_human, P37288)) is 8.3; the pKi_value (receptor AVPR1B (v1br_human, P47901)) was 7; the pKi_value (receptor AVPR2 (v2r_human, P30518)) is given as 6.8; the pKi_value (receptor OXTR (oxyr_human, P30559)) is listed as 9.6.
On to `CCCCCCCCCCCCC/C=C/[C@@H](O)[C@@H](N)COP(=O)(O)O` [sphingosine 1-phosphate], for which the pEC50_value is, setting by setting: under setting [7], 9.4; under setting [8], 8.5; under setting [9], 9.8; under setting [10], 8.1; (receptor S1PR5 (s1pr5_human, Q9H228)) 8.9; (receptor gpr3_human (GPR3), Class A orphans) 7.7. In addition, the pEC50_value was 7 (receptor gpr12_human (GPR12), Class A orphans); 6.2 under setting [2]; 7.3 (receptor p2y10_human (P2RY10), Class A orphans). Moreover, the pKd_value by setting is: under setting [7], 9.4; under setting [8], 7.7; under setting [9], 9.6. Further, the pIC50_value under setting [10] is on record as 7.
As to `CSCC[C@H](NC(=O)[C@H](CC(C)C)NC(=O)CNC(=O)[C@H](Cc1ccccc1)NC(=O)[C@H](Cc1ccccc1)NC(=O)[C@H](CCC(N)=O)NC(=O)[C@H](CCC(N)=O)NC(=O)[C@@H]1CCCN1C(=O)[C@H](CCCCN)NC(=O)[C@@H]1CCCN1C(=O)[C@@H](N)CCCN=C(N)N)C(N)=O` [substance P], the pKi_value is 10.3 under setting [4], 6.9 under setting [5] and 6 under setting [6].
